The target of assay [1] is T1, Recombinant (1-346) HPK1 (h) (Homo sapiens, UniProt Q92918).
T1 construct: Recombinant (1-346) HPK1 (h) is incubated with 8 mM MOPS pH 7.0
T1 sequence (Q92918 1-346): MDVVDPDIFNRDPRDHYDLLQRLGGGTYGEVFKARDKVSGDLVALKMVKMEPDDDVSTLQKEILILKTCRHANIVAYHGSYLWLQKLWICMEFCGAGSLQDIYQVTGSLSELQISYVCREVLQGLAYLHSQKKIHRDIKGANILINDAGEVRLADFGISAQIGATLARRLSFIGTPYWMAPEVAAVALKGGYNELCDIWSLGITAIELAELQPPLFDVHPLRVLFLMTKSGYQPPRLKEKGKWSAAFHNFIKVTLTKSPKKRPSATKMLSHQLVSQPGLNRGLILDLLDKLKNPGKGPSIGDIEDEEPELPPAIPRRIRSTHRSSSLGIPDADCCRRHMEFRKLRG
Description: HPK1 human STE kinase enzymatic radiometric assay. The following applies: read-out: HPK1 IC50 nM Range. Format: biochemical. An outline of the steps: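 Compounds in 3-fold, 9-point serial dilution; kinase (residues 1-346) phosphorylates myelin basic protein (0.33 mg/mL) using [gamma-33P]-ATP at pH 7.0 (MOPS, EDTA, Mg acetate) for 40 min, room temperature. Acid-quenched mixture filtered onto P30 mats; incorporated radioactivity read by scintillation counting.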

The target of assay [2] is Lck (h) (Homo sapiens, UniProt P06239). In words: Lck human STE kinase enzymatic radiometric assay. Format: biochemical. The following applies: read-out: Lck IC50 nM Range.
Lck (h), sequence (P06239 whole entry): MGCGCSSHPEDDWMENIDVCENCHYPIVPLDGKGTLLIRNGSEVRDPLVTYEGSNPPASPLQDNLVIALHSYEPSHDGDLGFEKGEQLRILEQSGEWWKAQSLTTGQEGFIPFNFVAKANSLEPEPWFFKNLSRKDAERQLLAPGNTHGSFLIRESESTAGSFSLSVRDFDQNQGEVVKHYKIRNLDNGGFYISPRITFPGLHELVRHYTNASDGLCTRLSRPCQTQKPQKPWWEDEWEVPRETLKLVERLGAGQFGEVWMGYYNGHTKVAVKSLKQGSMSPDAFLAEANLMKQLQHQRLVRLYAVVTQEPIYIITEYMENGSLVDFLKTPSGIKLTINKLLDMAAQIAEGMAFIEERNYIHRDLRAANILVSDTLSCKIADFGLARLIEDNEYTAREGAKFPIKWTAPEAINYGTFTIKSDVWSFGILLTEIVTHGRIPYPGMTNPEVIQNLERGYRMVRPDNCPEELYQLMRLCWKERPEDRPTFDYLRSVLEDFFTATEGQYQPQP

As usually defined, the IC50 is the midpoint of a concentration-inhibition curve. For `CC(C)N1CCN(c2ccc(-c3nc(-c4cc(F)c5c(=O)[nH]cc(F)c5c4)c(N)nc3F)cc2)CC1` [Example I-85, 6-(3-amino-5-fluoro-6-(4-(4-isopropylpiperazin-1-yl)phenyl)pyrazin-2-yl)-4,8-difluoroisoquinolin-1(2H)-one], the IC50 is 0.1 to 10 nM in assay [1] and above 1000 nM in assay [2].
The matching figures for `CC(C)N1CCN(c2ccc(-c3nc(-c4ccc5c(c4)CCNC5=O)c(N)nc3F)cc2)CC1` [Example I-1, 6-(3-amino-5-fluoro-6-(4-(4-isopropylpiperazin-1-yl)phenyl)pyrazin-2-yl)-3,4-dihydroisoquinolin-1(2H)-one]: 0.1 to 10 nM and above 1000 nM.
The corresponding values for `Cc1nc2cc(-c3nc(-c4ccc(N5CCN(C(C)C)CC5)cc4)c(F)nc3N)ccc2c(=O)[nH]1` [Example I-39, 7-(3-amino-5-fluoro-6-(4-(4-isopropylpiperazin-1-yl)phenyl)pyrazin-2-yl)-2-methylquinazolin-4(3H)-one] are 11 to 100 nM and above 1000 nM.
On to `Nc1nc(F)c(-c2ccc(N3CCOCC3)cc2)nc1-c1ccc2c(c1)CCNC2=O` [Example I-17, 6-(3-amino-5-fluoro-6-(4-morpholinophenyl)pyrazin-2-yl)-3,4-dihydroisoquinolin-1(2H)-one], for which the values for the half-maximal inhibitory concentration (IC50) in assay [1] and in assay [2] were 0.1 to 10 nM and above 1000 nM, respectively.
The matching figures for `Nc1nc(F)c(-c2ccc(N3CCN(CC4CC4)CC3)cc2)nc1-c1cc(F)c2c(=O)[nH]ccc2c1` [Example I-24, 6-(3-amino-6-(4-(4-(cyclopropylmethyl)piperazin-1-yl)phenyl)-5-fluoropyrazin-2-yl)-8-fluoroisoquinolin-1(2H)-one]: 0.1 to 10 nM and 101 to 1000 nM.
The corresponding values for `Nc1nc(F)c(-c2ccc(N3CCOCC3)cc2)nc1-c1cc(F)c2c(=O)[nH]ccc2c1` [Example I-36, 6-(3-amino-5-fluoro-6-(4-morpholinophenyl)pyrazin-2-yl)-8-fluoroisoquinolin-1(2H)-one] are 0.1 to 10 nM and above 1000 nM.
The corresponding values for `CC(C)N1CCN(c2ccc(-c3nc(-c4cc5c(cc4F)C(=O)NCC5)c(N)nc3F)cc2)CC1` [Example I-2, 6-(3-amino-5-fluoro-6-(4-(4-isopropylpiperazin-1-yl)phenyl)pyrazin-2-yl)-7-fluoro-3,4-dihydroisoquinolin-1(2H)-one] are 0.1 to 10 nM and above 1000 nM.
In the case of `Cc1[nH]c(=O)c2ccc(-c3nc(-c4ccc(C5CCOCC5)c(CN(C)C)c4)c(F)nc3N)cc2c1F` [Example I-97, 6-(3-amino-6-(3-((dimethylamino)methyl)-4-(tetrahydro-2H-pyran-4-yl)phenyl)-5-fluoropyrazin-2-yl)-4-fluoro-3-methylisoquinolin-1(2H)-one], the IC50 was 0.1 to 10 nM in assay [1] and above 1000 nM in assay [2].
The corresponding values for `C[C@@H]1CN(c2ccc(-c3nc(-c4ccc5c(c4)C(F)(F)CNC5=O)c(N)nc3F)cc2CN(C)C)C[C@H](C)O1` [Example I-257, 6-(3-amino-6-(3-((dimethylamino)methyl)-4-((2R,6S)-2,6-dimethylmorpholino)phenyl)-5-fluoropyrazin-2-yl)-4,4-difluoro-3,4-dihydroisoquinolin-1(2H)-one] are 0.1 to 10 nM and above 1000 nM.
The corresponding values for `Cc1cc2cc(-c3nc(-c4ccc(N5CCN(C(C)C)CC5)cc4)c(F)nc3N)cc(F)c2c(=O)[nH]1` [Example I-67, 6-(3-amino-5-fluoro-6-(4-(4-isopropylpiperazin-1-yl)phenyl)pyrazin-2-yl)-8-fluoro-3-methylisoquinolin-1(2H)-one] are 0.1 to 10 nM and above 1000 nM.
In the case of `Cc1c[nH]c(=O)c2ccc(-c3nc(-c4ccc(N5CCOCC5)c(CN(C)C)c4)c(F)nc3N)cc12` [Example I-96, 6-(3-amino-6-(3-((dimethylamino)methyl)-4-morpholinophenyl)-5-fluoropyrazin-2-yl)-4-methylisoquinolin-1(2H)-one], the IC50 was 0.1 to 10 nM in assay [1] and above 1000 nM in assay [2].

The record behind these values is patent US20240425479A1, “HALO-SUBSTITUTED AMINO AZA-HETEROARYL COMPOUNDS AS INHIBITORS OF THE HAEMATOPOIETIC PROGENITOR KINASE 1 (HPK1)” (priority 2021, published 2024).
